Measurements reported in patent publication US8188059B2, “Compounds and methods for modulating expression of GCGR” (Isis Pharmaceuticals, Inc., priority 2006, dated 2012).
Strand notation (5' to 3'): a small letter for the sugar, then the base; units joined by * are phosphorothioate-linked, units joined directly phosphodiester-linked; [ ] holds rarer units or linkages, { } end groups; capitals alone tell only the bases. e = 2'-O-(2-methoxyethyl) (MOE); [5mC] = 5-methylcytosine; d = 2'-deoxy (DNA)

Key:
[1] = test system: monkey GCGR mRNA; experiment: Antisense inhibition of GCGR in primary monkey hepatocytes, 25-200 nM (Example 21, Table 80); type: cell-based; details: relative to untreated control cells
Method: Additional short antisense compounds targeted to a GCGR nucleic acid were tested for their effects on monkey GCGR mRNA in vitro. Cultured primary monkey hepatocytes were treated as described herein with 25, 50, 100 or 200 nM of short antisense compound. After the treatment period, RNA was isolated from the cells and GCGR mRNA levels were measured by quantitative real-time PCR, as described herein. GCGR mRNA levels were adjusted according to total RNA content as measured by RIBOGREEN®. Results are presented in Table 80 as percent reduction in GCGR mRNA, relative to untreated control cells.

[2] = Triglyceride, total cholesterol, HDL, LDL, free fatty acid and glucose levels (Example 3, Table 28); type: in vivo, mouse; set-up: Free Fatty Acid (FFA): unit not given here; details: Balb/c mice
Method: (§1) Antisense compound doses included 2.4, 1.2, 0.6, 0.3 and 0.15 μmol/kg. For antisense compounds 14 nucleotides in length, these doses equate to approximately 12, 6, 3, 1.5 or 0.75 mg/kg, respectively. Shown in Table 25 are the sequences and motifs of the antisense compounds used in this study. […] Bolded residues indicate 2′-O-methoxyethyl moieties and italicized residues indicate methyleneoxy (4′-CH2—O-2′) BNAs. The internucleoside linkages of each compound are phosphorothioate throughout. All cytosine residues of ISIS 147764 and ISIS 372938 are replaced by 5-methyl cytosines. For ISIS 387462, only the cytosine residue in the wing of the compound is replaced by 5-methyl cytosine. ApoB antisense compounds are targeted to publicly available ApoB-100 sequences, including Genbank Accession No. XM—137955.5 (SEQ ID NO: 2).
(§2) Forty-eight hours following the final injection, mice were sacrificed to evaluate transaminases (Table 26); liver and kidney weight (Table 27); triglyceride, LDL, HDL and free fatty acid levels (Table 28); target mRNA level in liver (Table 29); target protein level in plasma; and oligonucleotide tissue concentration (Table 30). These endpoints were determined using methods described herein and well known to those of ordinary skill in the art.
Glucose levels also were similar among all treatment groups.

[3] = Liver and kidney weight, total body weight and food consumption (Example 3, Table 27); type: in vivo, mouse; details: Balb/c mice
Method: as §1, §2

[4] = Full-length and total antisense compound tissue concentration in liver and kidney (Example 3, Table 30); type: in vivo, mouse; details: Balb/c mice, 2.4 μmol/kg i.p. twice per week for three weeks
Method: as §1, §2
To determine whether the observed increase in efficiency with the methyleneoxy (4′-CH2—O-2′) BNA gapmer is due to an increase in oligonucleotide accumulation, full-length and total oligonucleotide concentration in the liver and kidney were determined.

[5] = test system: ApoB mRNA; experiment: ApoB mRNA level in liver of Balb/c mice, i.p. twice per week for three weeks (Example 3, Table 29); type: in vivo, mouse; details: for % ApoB mRNA Level (relative to saline control): liver
Method: Prior to quantitative PCR analysis, primer-probe sets specific to the target gene being measured were evaluated for their ability to be “multiplexed” with a GAPDH amplification reaction. After isolation the RNA is subjected to sequential reverse transcriptase (RT) reaction and real-time PCR, both of which are performed in the same well. RT and PCR reagents were obtained from Invitrogen Life Technologies (Carlsbad, Calif.). […] The RT reaction was carried out by incubation for 30 minutes at 48° C. Following a 10 minute incubation at 95° C. to activate the […]® Taq, 40 cycles of a two-step PCR protocol were carried out: 95° C. for 15 seconds (denaturation) followed by 60° C. for 1.5 minutes (annealing/extension).
as §1, §2

[6] = ALT and AST levels, Balb/c mice (Example 3, Table 26); type: in vivo, mouse; details: 48 h after final injection
Method: as §1, §2

[7] = test system: GCGR mRNA; experiment: GCGR mRNA levels in liver and estimated ED50, C57/BL6 mice, single i.p. dose (Example 5, Tables 44, 45); type: in vivo, mouse
Method: Eight-week old male C57/BL6 mice (Jackson Laboratory, Bar Harbor, Me.) were administered a single dose of GCGR antisense compound by intraperitonel (i.p.) injection at a concentration of 10, 3.2, 1, and 0.32 μmol·kg. Each dose group consisted of four animals. Shown in Table 43 are the sequences, motifs and conjugates of the GCGR antisense compounds used in this study. Bolded residues indicate 2′-O-methoxyethyl (2′-MOE) modifications and the italicized residues indicate methyleneoxy (4′-CH2—O-2′) BNA modifications. All antisense compounds comprise phosphorothioate internucleoside linkages throughout and each cytosine is replaced with 5-methylcytosine. GCGR antisense compounds target published GCGR nucleic acids, including Genbank Accession No. BC031885.1 (SEQ ID NO: 7).
To determine whether the phenotypic changes shown above correlated with a decrease in GCGR mRNA, treated animals were evaluated for levels of target mRNA in liver by RT, real time PCR according to methods described herein. Table 44 show results from direct comparisons of the antisense compounds targeting GCGR nucleic acid for their effect on target expression. Results are expressed as percent of saline control.

[8] = test system: rat SGLT2 mRNA; experiment: Rat SGLT2 mRNA levels in kidney, 1-10-1 gapmers at 250 nmol/kg, Sprague-Dawley rats (Example 14, Table 66); type: in vivo
Method: The effect of the above 1-10-1gapmers (see Table 64 above) on rat SGLT2 mRNA levels. Data are taken from four experiments in which male Sprague-Dawley rats (170-200 g) were dosed twice per week for three weeks with 250 nmol/kg given by intraperitoneal injection. Rats were sacrificed 48 hours following last administration and evaluated for SGLT2 mRNA levels in kidney. Target levels were determined by RT, real-time PCR as described by other examples herein. PCR results were normalized to an internal ISIS control.

[9] = 0.15 μmol/kg i.p. twice per week for three weeks
[10] = 0.3 μmol/kg i.p. twice per week for three weeks
[11] = 0.6 μmol/kg i.p. twice per week for three weeks
[12] = 1.2 μmol/kg i.p. twice per week for three weeks
[13] = 2.4 μmol/kg i.p. twice per week for three weeks

327131 (antisense eA*eT*eG*dT*dT*dG*dG*d[5mC]*d[5mC]*dG*dT*eG*eG*eT) [compound 327131]
percent reduction in GCGR mRNA ([1]; 25 nM): 0
percent reduction in GCGR mRNA ([1]; 50 nM): −8
percent reduction in GCGR mRNA ([1]; 100 nM): −36
percent reduction in GCGR mRNA ([1]; 200 nM): −36

372938 (antisense eG*eG*dT*dA*d[5mC]*dA*dT*dG*dG*dA*dA*dG*eT*e[5mC]) [compound 372938]
Free Fatty Acid (FFA) [2, 9]: 1.57
HDL [2, 9]: 82.8 mg/dL
LDL [2, 9]: 10.8 mg/dL
Total Cholesterol (CHOL) [2, 9]: 106 mg/dL
Triglyceride (TRIG) [2, 9]: 151 mg/dL
Free Fatty Acid (FFA) [2, 10]: 1.53
HDL [2, 10]: 84.3 mg/dL
LDL [2, 10]: 11.0 mg/dL
Total Cholesterol (CHOL) [2, 10]: 109 mg/dL
Triglyceride (TRIG) [2, 10]: 138 mg/dL
Free Fatty Acid (FFA) [2, 11]: 1.66
HDL [2, 11]: 83.3 mg/dL
LDL [2, 11]: 10.8 mg/dL
Total Cholesterol (CHOL) [2, 11]: 110 mg/dL
Triglyceride (TRIG) [2, 11]: 184 mg/dL
Free Fatty Acid (FFA) [2, 12]: 1.70
HDL [2, 12]: 77.8 mg/dL
LDL [2, 12]: 9.5 mg/dL
Total Cholesterol (CHOL) [2, 12]: 101 mg/dL
Triglyceride (TRIG) [2, 12]: 136 mg/dL
Free Fatty Acid (FFA) [2, 13]: 1.28
HDL [2, 13]: 79.0 mg/dL
LDL [2, 13]: 10.3 mg/dL
Total Cholesterol (CHOL) [2, 13]: 104 mg/dL
Triglyceride (TRIG) [2, 13]: 153 mg/dL
Kidney Weight [3, 9]: 98 % of saline control
Liver Weight [3, 9]: 96 % of saline control
Kidney Weight [3, 10]: 107 % of saline control
Liver Weight [3, 10]: 91 % of saline control
Kidney Weight [3, 11]: 112 % of saline control
Liver Weight [3, 11]: 96 % of saline control
Kidney Weight [3, 12]: 101 % of saline control
Liver Weight [3, 12]: 90 % of saline control
Kidney Weight [3, 13]: 100 % of saline control
Liver Weight [3, 13]: 100 % of saline control
Kidney Full-Length antisense compound tissue concentration [4]: 32.0 µM
Kidney Total antisense compound tissue concentration [4]: 34.0 µM
Liver Full-Length antisense compound tissue concentration [4]: 5.49 µM
Liver Total antisense compound tissue concentration [4]: 7.76 µM
ApoB mRNA level ([5]; Table 30 (rounded), 2.4 μmol/kg i.p. twice per week for three weeks): 77 % of saline control
% ApoB mRNA Level (relative to saline control) [5, 9]: 93.1%
% ApoB mRNA Level (relative to saline control) [5, 10]: 92.6%
% ApoB mRNA Level (relative to saline control) [5, 11]: 87.3%
% ApoB mRNA Level (relative to saline control) [5, 12]: 90.0%
% ApoB mRNA Level (relative to saline control) [5, 13]: 77.0%
ALT [6, 9]: 28.3 IU/L
AST [6, 9]: 50.3 IU/L
ALT [6, 10]: 28.3 IU/L
AST [6, 10]: 60.0 IU/L
ALT [6, 11]: 28.0 IU/L
AST [6, 11]: 79.3 IU/L
ALT [6, 12]: 24.8 IU/L
AST [6, 12]: 49.5 IU/L
ALT [6, 13]: 26.0 IU/L
AST [6, 13]: 49.0 IU/L

396145 (antisense eA*eT*eG*eG*e[5mC]*dT*dT*d[5mC]*dT*d[5mC]*d[5mC]*dA*dT*d[5mC]*dA*eT*eA*eT*e[5mC]*e[5mC]) [compound 396145]
GCGR mRNA levels in liver ([7]; 3.2 μmol/kg single i.p.): 33% of saline control
GCGR mRNA levels in liver ([7]; 10 μmol/kg single i.p.): 8% of saline control

396147 (antisense e[5mC]*eT*eT*eG*eG*dG*d[5mC]*dA*dT*dG*d[5mC]*dT*d[5mC]*dG*dT*e[5mC]*eA*eG*eT*e[5mC]) [compound 396147]
GCGR mRNA levels in liver ([7]; 3.2 μmol/kg single i.p.): 68% of saline control
GCGR mRNA levels in liver ([7]; 10 μmol/kg single i.p.): 28% of saline control

ISIS 381408: SGLT2; 1-10-1 MOE gapmer (antisense TACCGAACACCT; sugars from the 5' end e1 d10 e1, backbone and methylation of C not given here)
% change in SGLT2 expression relative to saline ([8]; 250 nmol/kg i.p. twice per week for three weeks, Sprague-Dawley rats, kidney): −5%
expression of SGLT2 in vivo ([8]; rat kidney, 250 nmol/kg twice per week for three weeks): Activity of ISIS 381408 has been shown
